Measurements from US20190083436A1, “METHODS OF DIAGNOSING CANCER” (AGENCY FOR SCIENCE, TECHNOLOGY AND RESEARCH, priority 2016, published 2019).

Tests used:
[1] = test system: DEN-induced liver tumors; assay: DEN-injected mice fed BCAA-supplemented diets with Fenofibrate or BT2; format: in vivo; settings: 8 months after DEN injection; LFD+BCAA or HFD+BCAA with 0.05% Fenofibrate or 0.02% BT2
Text: Analysis of mice 8 months after DEN injection, fed either a low fat diet (LFD, 10% kcal from fat) or high fat diet (HFD, 45% kcal from fat) with normal or high (+150%) levels of BCAAs. […] Hazard ratios (with 95% confidence intervals) based on BCAA intake, adjusted for age, sex, race, total kcal, usual dietary intake, diet change, physical activity, intentional weight loss, waist circumference, smoking, education, and prior diagnosis of cancer, diabetes and cardiovascular disease, additionally adjusted for % kcal from other macronutrients. […] Substitution analysis comparing change in risk when replacing BCAAs with carbohydrate or fat, with the same adjustments as HR2 except total kcal and % kcal from nonBCAA protein. Data are presented as hazard ratio (solid line) with 95% confidence interval (shaded area). […] Student's t-test, *P<0.05 vs. LFD, § P<0.05 vs HFD. †P<0.05 vs LFD+BCAA. ‡P<0.05 vs HFD+BCAA. […]
All animal studies were approved by the Institutional Animal Care and Use Committee at A*STAR. […] For rat DEN model, DEN was given to 10 week-old rats via drinking water containing 100 mg/L DEN for up to 4 months, and control rat livers from age-matched rats were analyzed. […] Livers were resected, measured by electronic calipers and snap frozen in liquid nitrogen. […] Body weights were measured weekly and prior to sacrifice lean and fat mass were measured by an EchoMRI Body Composition Analyzer. […]

[2] = test system: mTOR; assay: Immunofluorescence of mTOR/LAMP2 co-localization in Hep3B cells; format: cell-based; settings: treated 2 hours
Text: Arrows highlight the co-localization of mTOR and lysosomal marker LAMP2. […] Student's t-test, *P<0.05, compared to respective controls.

[3] = test system: HCC cell lines; assay: Real-time cell proliferation (xCELLigence) of liver cancer cell lines treated with compounds; format: cell-based
Protocol: Cell Culture. Cell lines were obtained [Huh7 from Japanese Collection of Research Bioresources; Hep3B, SNU182, SNU387, SNU398, and SNU449 from ATCC; and Morris Hepatoma 3924a from German Cancer Research Center Tumor Collection] and not further verified. Only cell stocks that had been verified mycoplasma-negative within the prior 9 months were used. All cell lines were maintained in RPMI 1640 with 10% FBS and 1% Pen Strep (Gibco) and grown in a 37° C. humidified incubator with 5% CO2. Real-time cell growth measurements were taken on an xCELLigence RTCA SP (Acea) at 15-minute intervals. For compound treatment growth curves, cells were seeded in quadruplicate at 1,250, 2,500 or 5,000 cells per well and normalized 12 hours later (time 0 hours), immediately prior to changing half of the media to add compounds or vehicle. […] For immunoblots, cells were seeded in 10 cm dishes and allowed to grow for at least 24 hours. At approximately 80% confluence the media was changed to include indicated amounts of compound or vehicle (DMSO) and whole cell lysates were harvested 2 hours later. […] Results shown are one of at least three independent experiments.

[4] = test system: mTOR pathway; assay: Immunoblots of mTOR pathway activity after 2 hours of compound treatment; format: cell-based; settings: HCC cell lines, 2 hours of treatment
Protocol: All cell lines were maintained in RPMI 1640 with 10% FBS and 1% Pen Strep (Gibco) and grown in a 37° C. humidified incubator with 5% CO2. […] For immunoblots, cells were seeded in 10 cm dishes and allowed to grow for at least 24 hours. At approximately 80% confluence the media was changed to include indicated amounts of compound or vehicle (DMSO) and whole cell lysates were harvested 2 hours later. […] For immunoblots, cells were seeded in 10 or 15 cm dishes, and were split or received media change every 3-4 days to maintain a doxycycline concentration of 250 μg/mL. After 10 days, cells were harvested as whole cell lysates, or as purified mitochondrial fractions using an isolation kit (Thermo Fisher). Results shown are one of at least three independent experiments. […] For immunoblots, cells were seeded into 10 cm or 15 cm dishes and harvested 5 days later as whole cell lysates or purified mitochondrial fractions, when the cells were approximately 80% confluent.
Antibodies were obtained from Cell Signaling [Cleaved Caspase 3 (9664), Cox IV (4844), p-Histone H2A.X (9718), S6 (2317), p-S6 (4858), S6K (9202), p-S6K (9234)], Santa Cruz [Bckdha (sc-67200), Bckdhb (sc160974), Gapdh (sc-32233)], Bethyl [p-Bckdha (A304-672A)], Sigma [Tubulin (T5168), Acads (HPA022271)], and Abcam [Acadsb (ab99951), Bckdk (ab125389 and ab151297), Ki67 (ab15580)]. […]

| Compound | tumor promoting effects of BCAA-supplemented diets (number of tumors ≥3 mm, size of largest tumor) [1] | mTOR subcellular localization (co-localization of mTOR and lysosomal marker LAMP2) [2] | cell proliferation (real-time proliferation curves, divisions per day) ([3]; panel of HCC cell lines, rates over 48-hour period) | mTOR activity (immunoblots) [4] | sensitivity of HCC cell lines to mTOR inhibitors ([3]; all HCC cell lines examined, proliferation and mTOR pathway immunoblots) |
| --- | --- | --- | --- | --- | --- |
| O=C(O)c1sc2cc(Cl)ccc2c1Cl [BT2, 3,6-dichlorobenzo[b]thiophene-2-carboxylic acid] | able to reverse the tumor promoting effects | no significant co-localization was observed | potent dose-dependent decrease in cell proliferation | broad loss of mTOR activity | – |
| CC(C)OC(=O)C(C)(C)Oc1ccc(C(=O)c2ccc(Cl)cc2)cc1 [Fenofibrate, propan-2-yl 2-[4-(4-chlorobenzoyl)phenoxy]-2-methylpropanoate] | able to reverse the tumor promoting effects | no significant co-localization was observed | – | – | – |
| CCC(=O)N1CCN(c2ccc(-n3c(=O)ccc4cnc5ccc(-c6cnc7ccccc7c6)cc5c43)cc2C(F)(F)F)CC1 [Torin 1] | – | – | – | – | at least partially sensitive |
